How the values were obtained:
velvetleaf = assay: Test C postemergence; format: in vivo, Abutilon theophrasti
Procedure, shortened: (§1)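 Plants are treated postemergence at the 1- to 4-leaf stage (2 to 18 cm), grown in sphagnum peat/vermiculite medium; preemergence treatment is applied to seed planted in loam soil with sand. Both use test chemical in a non-phytotoxic solvent mixture with surfactant.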

johnsongrass = assay: Test C postemergence; format: in vivo, Sorghum halepense
Procedure, shortened: as §1

waterhemp = assay: Test C preemergence; format: in vivo, Amaranthus rudis; details: for Waterhemp plant response rating (0 to 100): Preemergence, visual rating after 13 to 15 d; for Plant response rating (scale of 0 to 100 where 0 is no effect and 100 is complete control): Waterhemp, preemergence, 250 g ai/ha
Text: Seeds of plant species selected from blackgrass (Alopecurus myosuroides), ryegrass, Italian (Italian ryegrass, Lolium multiflorum), wheat (winter wheat, Triticum aestivum), galium (catchweed bedstraw, Galium aparine), corn (Zea mays), crabgrass, large (large crabgrass, Digitaria sanguinalis), foxtail, giant, (giant foxtail, Setaria faberii), johnsongrass (Sorghum halepense), lambsquarters (Chenopodium album), morningglory (Ipomoea coccinea), nutsedge, yellow (yellow nutsedge, Cyperus esculentus), pigweed (Amaranthus retroflexus), ragweed (common ragweed, Ambrosia elatior), soybean (Glycine max), barnyardgrass (Echinochloa crus-galli), oilseed rape (Brassica napus), waterhemp (common waterhemp, Amaranthus rudis), and velvetleaf (Abutilon theophrasti) were planted into a blend of loam soil and sand and treated preemergence with test chemicals formulated in a non-phytotoxic solvent mixture which included a surfactant. At the same time, plants selected from these crop and weed species and also chickweed (common chickweed, Stellaria media), oat, wild (wild oat, Avena fatua), and kochia (Kochia scoparia), were planted in pots containing Sunshine Redi-Earth® planting medium comprising spaghnum peat moss, vermiculite, starter nutrients and dolomitic limestone and treated with postemergence applications of test chemicals formulated in the same manner. Plants ranged in height from 2 to 18 cm (1- to 4-leaf stage) for postemergence treatments. […] A dash (-) response means no test result.

ragweed = assay: Test C postemergence; format: in vivo, Ambrosia elatior
Procedure, shortened: as §1

soybean = assay: Test C postemergence; format: in vivo, Glycine max
Procedure, shortened: as §1

foxtail, giant [1] = assay: Test A preemergence; format: in vivo, Setaria faberii; details: 0 to 100 scale (0 no effect, 100 complete control)
Procedure, shortened: (§2)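 Loam/sand soil mix; compound in non-phytotoxic solvent + surfactant. Pre: directed soil spray right after planting seed. Post: potted plants 2–10 cm, 1–2 leaf stage, sprayed with same formulation.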

foxtail, giant [2] = assay: Test A postemergence; format: in vivo, Setaria faberii; details: 0 to 100 scale (0 no effect, 100 complete control), approx. 10 d
Procedure, shortened: as §2

pigweed [3] = assay: Test A postemergence; format: in vivo, Amaranthus retroflexus; details: 0 to 100 scale (0 no effect, 100 complete control), approx. 10 d
Procedure, shortened: as §2

barnyardgrass = assay: Test C postemergence; format: in vivo, Echinochloa crus-galli
Procedure, shortened: as §1

corn = assay: Test C postemergence; format: in vivo, Zea mays
Procedure, shortened: as §1

crabgrass, large = assay: Test C postemergence; format: in vivo, Digitaria sanguinalis
Procedure, shortened: as §1

ducksalad = assay: Test B flooded paddy test; format: in vivo, Heteranthera limosa; details: 250 g ai/ha, applied to paddy water at 2-leaf stage, visual rating after 13 to 15 d, scale 0 (no effect) to 100 (complete control)
Procedure, shortened: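 Pots were flooded to 3 cm above the soil at treatment, and compounds were applied directly into the paddy water. That depth was held throughout. After 13 to 15 d in a greenhouse, plants were rated visually against untreated controls.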

pigweed [4] = assay: Test A preemergence; format: in vivo, Amaranthus retroflexus; details: 0 to 100 scale (0 no effect, 100 complete control)
Procedure, shortened: as §2

galium = assay: Test C postemergence; format: in vivo, Galium aparine
Procedure, shortened: as §1

FC(F)(F)COc1nc(-c2ccc(Cl)cc2)nn1Cc1ccnc(C(F)(F)F)c1 [Compound 31]
Plant response rating (scale of 0 to 100 where 0 is no effect and 100 is complete control) (velvetleaf; 31 g ai/ha): 45 | Plant response rating (scale of 0 to 100 where 0 is no effect and 100 is complete control) (velvetleaf; 62 g ai/ha): 65 | Plant response rating (scale of 0 to 100 where 0 is no effect and 100 is complete control) (velvetleaf; 125 g ai/ha): 65 | Plant response rating (scale of 0 to 100 where 0 is no effect and 100 is complete control) (velvetleaf; 250 g ai/ha): 75 | Plant response rating (scale of 0 to 100 where 0 is no effect and 100 is complete control) (johnsongrass; 31 g ai/ha): 35 | Plant response rating (scale of 0 to 100 where 0 is no effect and 100 is complete control) (johnsongrass; 62 g ai/ha): 25 | Plant response rating (scale of 0 to 100 where 0 is no effect and 100 is complete control) (johnsongrass; 125 g ai/ha): 40 | Plant response rating (scale of 0 to 100 where 0 is no effect and 100 is complete control) (johnsongrass; 250 g ai/ha): 70 | Waterhemp plant response rating (0 to 100) (waterhemp; 31 g ai/ha): 100 | Waterhemp plant response rating (0 to 100) (waterhemp; 62 g ai/ha): 100 | Plant response rating (scale of 0 to 100 where 0 is no effect and 100 is complete control) (waterhemp): 100 | Plant response rating (scale of 0 to 100 where 0 is no effect and 100 is complete control) (ragweed; 31 g ai/ha): 70 | Plant response rating (scale of 0 to 100 where 0 is no effect and 100 is complete control) (ragweed; 62 g ai/ha): 75 | Plant response rating (scale of 0 to 100 where 0 is no effect and 100 is complete control) (ragweed; 125 g ai/ha): 85 | Plant response rating (scale of 0 to 100 where 0 is no effect and 100 is complete control) (ragweed; 250 g ai/ha): 100 | Plant response rating (scale of 0 to 100 where 0 is no effect and 100 is complete control) (soybean; 31 g ai/ha): 40 | Plant response rating (scale of 0 to 100 where 0 is no effect and 100 is complete control) (soybean; 62 g ai/ha): 65 | Plant response rating (scale of 0 to 100 where 0 is no effect and 100 is complete control) (soybean; 125 g ai/ha): 35 | Plant response rating (scale of 0 to 100 where 0 is no effect and 100 is complete control) (soybean; 250 g ai/ha): 65 | Plant response rating, Foxtail, Giant (foxtail, giant [1]; 125 g ai/ha): 100 | Plant response rating, Foxtail, Giant (foxtail, giant [1]; 500 g ai/ha, approx. 10 d): 100 | Plant response rating, Foxtail, Giant (foxtail, giant [2]; 125 g ai/ha): 80 | Plant response rating, Foxtail, Giant (foxtail, giant [2]; 500 g ai/ha): 90 | Plant response rating, Pigweed (pigweed [3]; 125 g ai/ha): 100 | Plant response rating, Pigweed (pigweed [3]; 500 g ai/ha): 100 | Plant response rating (scale of 0 to 100 where 0 is no effect and 100 is complete control) (barnyardgrass; 31 g ai/ha): 35 | Plant response rating (scale of 0 to 100 where 0 is no effect and 100 is complete control) (barnyardgrass; 62 g ai/ha): 35 | Plant response rating (scale of 0 to 100 where 0 is no effect and 100 is complete control) (barnyardgrass; 125 g ai/ha): 45 | Plant response rating (scale of 0 to 100 where 0 is no effect and 100 is complete control) (barnyardgrass; 250 g ai/ha): 75 | Plant response rating (scale of 0 to 100 where 0 is no effect and 100 is complete control) (corn; 31 g ai/ha): 40 | Plant response rating (scale of 0 to 100 where 0 is no effect and 100 is complete control) (corn; 62 g ai/ha): 20 | Plant response rating (scale of 0 to 100 where 0 is no effect and 100 is complete control) (corn; 125 g ai/ha): 20 | Plant response rating (scale of 0 to 100 where 0 is no effect and 100 is complete control) (corn; 250 g ai/ha): 30 | Plant response rating (scale of 0 to 100 where 0 is no effect and 100 is complete control) (crabgrass, large; 31 g ai/ha): 20 | Plant response rating (scale of 0 to 100 where 0 is no effect and 100 is complete control) (crabgrass, large; 62 g ai/ha): 35 | Plant response rating (scale of 0 to 100 where 0 is no effect and 100 is complete control) (crabgrass, large; 125 g ai/ha): 60 | Plant response rating (scale of 0 to 100 where 0 is no effect and 100 is complete control) (crabgrass, large; 250 g ai/ha): 80 | Plant response rating, Ducksalad, Flood (ducksalad): 70 | Plant response rating, Pigweed (pigweed [4]; 125 g ai/ha): 100 | Plant response rating, Pigweed (pigweed [4]; 500 g ai/ha, approx. 10 d): 100 | Plant response rating (scale of 0 to 100 where 0 is no effect and 100 is complete control) (galium; 31 g ai/ha): 80 | Plant response rating (scale of 0 to 100 where 0 is no effect and 100 is complete control) (galium; 62 g ai/ha): 80 | Plant response rating (scale of 0 to 100 where 0 is no effect and 100 is complete control) (galium; 125 g ai/ha): 80 | Plant response rating (scale of 0 to 100 where 0 is no effect and 100 is complete control) (galium; 250 g ai/ha): 80

Fc1ccc(-c2nc(OCC(F)(F)F)n(Cc3ccnc(C(F)(F)F)c3)n2)cc1 [Compound 30]
Plant response rating (scale of 0 to 100 where 0 is no effect and 100 is complete control) (velvetleaf; 31 g ai/ha): 55 | Plant response rating (scale of 0 to 100 where 0 is no effect and 100 is complete control) (velvetleaf; 62 g ai/ha): 60 | Plant response rating (scale of 0 to 100 where 0 is no effect and 100 is complete control) (velvetleaf; 125 g ai/ha): 80 | Plant response rating (scale of 0 to 100 where 0 is no effect and 100 is complete control) (velvetleaf; 250 g ai/ha): 90 | Plant response rating (scale of 0 to 100 where 0 is no effect and 100 is complete control) (johnsongrass; 31 g ai/ha): 30 | Plant response rating (scale of 0 to 100 where 0 is no effect and 100 is complete control) (johnsongrass; 62 g ai/ha): 100 | Plant response rating (scale of 0 to 100 where 0 is no effect and 100 is complete control) (johnsongrass; 125 g ai/ha): 35 | Plant response rating (scale of 0 to 100 where 0 is no effect and 100 is complete control) (johnsongrass; 250 g ai/ha): 30 | Waterhemp plant response rating (0 to 100) (waterhemp; 31 g ai/ha): 100 | Waterhemp plant response rating (0 to 100) (waterhemp; 62 g ai/ha): 100 | Plant response rating (scale of 0 to 100 where 0 is no effect and 100 is complete control) (waterhemp): 100 | Plant response rating (scale of 0 to 100 where 0 is no effect and 100 is complete control) (ragweed; 31 g ai/ha): 65 | Plant response rating (scale of 0 to 100 where 0 is no effect and 100 is complete control) (ragweed; 62 g ai/ha): 55 | Plant response rating (scale of 0 to 100 where 0 is no effect and 100 is complete control) (ragweed; 125 g ai/ha): 65 | Plant response rating (scale of 0 to 100 where 0 is no effect and 100 is complete control) (ragweed; 250 g ai/ha): 85 | Plant response rating (scale of 0 to 100 where 0 is no effect and 100 is complete control) (soybean; 31 g ai/ha): 25 | Plant response rating (scale of 0 to 100 where 0 is no effect and 100 is complete control) (soybean; 62 g ai/ha): 45 | Plant response rating (scale of 0 to 100 where 0 is no effect and 100 is complete control) (soybean; 125 g ai/ha): 60 | Plant response rating (scale of 0 to 100 where 0 is no effect and 100 is complete control) (soybean; 250 g ai/ha): 75 | Plant response rating, Foxtail, Giant (foxtail, giant [1]; 125 g ai/ha): 100 | Plant response rating, Foxtail, Giant (foxtail, giant [1]; 500 g ai/ha, approx. 10 d): 100 | Plant response rating, Foxtail, Giant (foxtail, giant [2]; 125 g ai/ha): 80 | Plant response rating, Foxtail, Giant (foxtail, giant [2]; 500 g ai/ha): 90 | Plant response rating, Pigweed (pigweed [3]; 125 g ai/ha): 100 | Plant response rating, Pigweed (pigweed [3]; 500 g ai/ha): 100 | Plant response rating (scale of 0 to 100 where 0 is no effect and 100 is complete control) (barnyardgrass; 31 g ai/ha): 25 | Plant response rating (scale of 0 to 100 where 0 is no effect and 100 is complete control) (barnyardgrass; 62 g ai/ha): 20 | Plant response rating (scale of 0 to 100 where 0 is no effect and 100 is complete control) (barnyardgrass; 125 g ai/ha): 40 | Plant response rating (scale of 0 to 100 where 0 is no effect and 100 is complete control) (barnyardgrass; 250 g ai/ha): 85 | Plant response rating (scale of 0 to 100 where 0 is no effect and 100 is complete control) (corn; 31 g ai/ha): 15 | Plant response rating (scale of 0 to 100 where 0 is no effect and 100 is complete control) (corn; 62 g ai/ha): 10 | Plant response rating (scale of 0 to 100 where 0 is no effect and 100 is complete control) (corn; 125 g ai/ha): 25 | Plant response rating (scale of 0 to 100 where 0 is no effect and 100 is complete control) (corn; 250 g ai/ha): 20 | Plant response rating (scale of 0 to 100 where 0 is no effect and 100 is complete control) (crabgrass, large; 31 g ai/ha): 20 | Plant response rating (scale of 0 to 100 where 0 is no effect and 100 is complete control) (crabgrass, large; 62 g ai/ha): 15 | Plant response rating (scale of 0 to 100 where 0 is no effect and 100 is complete control) (crabgrass, large; 125 g ai/ha): 35 | Plant response rating (scale of 0 to 100 where 0 is no effect and 100 is complete control) (crabgrass, large; 250 g ai/ha): 60 | Plant response rating, Ducksalad, Flood (ducksalad): 80 | Plant response rating, Pigweed (pigweed [4]; 125 g ai/ha): 100 | Plant response rating, Pigweed (pigweed [4]; 500 g ai/ha, approx. 10 d): 100 | Plant response rating (scale of 0 to 100 where 0 is no effect and 100 is complete control) (galium; 31 g ai/ha): 80 | Plant response rating (scale of 0 to 100 where 0 is no effect and 100 is complete control) (galium; 62 g ai/ha): 80 | Plant response rating (scale of 0 to 100 where 0 is no effect and 100 is complete control) (galium; 125 g ai/ha): 90 | Plant response rating (scale of 0 to 100 where 0 is no effect and 100 is complete control) (galium; 250 g ai/ha): 90

— US10681909B2, “Herbicidal triazoles” (FMC Corporation, priority 2014, dated 2020)
